Results on 10 compounds are retold here after ChEMBL document CHEMBL1201862, “PubChem BioAssay data set” (2004).

Holding throughout (assay): NCI tumour cell line growth inhibition, 48 h
The subject of assay [1] is SK-MEL-5.
Assay [2] deals with MDA-MB-435.
Assay [3] relates to M14.
The test system of assay [4] is SK-MEL-2.
The test system of assay [5] is A549.
Assay [6] deals with HT-29.
Assay [7] relates to NCI-H226.
For assay [8], the system named is HL-60.
For assay [9], the system named is A498.
The subject of assay [10] is SR.
In assay [11] the test system is TK-10.
The test system of assay [12] is SK-MEL-28.
Assay [13] has as its system EKVX.
In assay [14] the test system is UO-31.
Assay [15] relates to ACHN.
For assay [16], the system named is SF-295.
Assay [17] relates to NCI-H23.
Assay [18] deals with PC-3.
The subject of assay [19] is MCF7.
The test system of assay [20] is RXF 393.

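Interpolation was linear, between the two tested concentrations surrounding the appropriate level; five concentrations were tested over 48 hours in 96-well plates. GI50 is the concentration that inhibits growth by half.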 Calls of active or inactive are those of the source. Cut-off read from the data, not from the text of the source: active = GI50 up to about 1.1 µM and inactive = higher.

Regarding `CC1=NN(C(=O)c2ccccc2O)C(=O)/C1=C/c1ccccc1O`, the GI50 is 1.06 µM (active) in [1]; 0.0612 µM (active) in [2]; 1.55 µM (inactive) in assay [3]; 6.4 µM (inactive) in assay [4]; 0.157 µM (active) in [5]; 8.45 µM (inactive) in assay [6]. Besides, the GI50 is 0.977 µM (active) in assay [7]; 0.409 µM (active) in assay [8]; 0.0327 µM (active) in [9]; 0.251 µM (active) in assay [10]; 15.2 µM (inactive) in assay [11]; 18.5 µM (inactive) in assay [12]. Moreover, the GI50 in [13] is 1.78 µM (inactive); in assay [14] it was 0.0634 µM (active); in assay [15], 0.0695 µM (active); in assay [16], 0.0736 µM (active); in assay [17], 0.404 µM (active); in assay [18] it was 1.35 µM (inactive). In addition, the GI50 in assay [19] was 2.68 µM (inactive); in assay [20] it was 0.0986 µM (active).

Consider `Nc1nc(N)c2nc(CNc3ccc(C(=O)O)cc3)[nH]c2n1`, for which the GI50 in assay [1], in assay [2], in assay [3], in [4], in [5] and in assay [6] was > 100 µM (inactive) throughout. For the same compound, the GI50 in assay [7], in [8], in assay [9], in [10], in [11] and in [12] was > 100 µM (inactive) each time. The GI50 in assay [13], in assay [14], in assay [15], in assay [16], in [17] and in [18] was > 100 µM (inactive) in each case. The GI50 in assay [19] and in assay [20] was > 100 µM (inactive) in each case.

Take `Cc1ccccc1NC(=S)N/N=C1\C(=O)Nc2ccccc21`: the GI50 in [1], in assay [2], in assay [3], in assay [4], in [5] and in assay [6] was > 100 µM (inactive) in each case. The GI50 in [7] is > 100 µM (inactive); in assay [8], > 100 µM (inactive); in [9], 86.3 µM (inactive); in [10] it was 70.6 µM (inactive); in [11] it was > 100 µM (inactive); in assay [12], 15.1 µM (inactive). Besides, the GI50 in [13], in [14], in [15], in assay [16], in [17] and in assay [18] was > 100 µM (inactive) in each case. Moreover, the GI50 in assay [19] and in [20] was > 100 µM (inactive) in each case.

As for `CC1=CC=CC(C)(C)CC1(O[Si](C)(C)C)C(F)(F)F` (stereo not given), the GI50 in [1] was > 100 µM (inactive); in [2] it was > 100 µM (inactive); in assay [3], > 100 µM (inactive); in assay [4], > 100 µM (inactive); in assay [5] it was 64.3 µM (inactive); in assay [6] it was 46.8 µM (inactive). Also, the GI50 in assay [7] is > 100 µM (inactive); in assay [8] it was 28.9 µM (inactive); in [9], > 100 µM (inactive); in [10] it was > 100 µM (inactive); in [11], > 100 µM (inactive); in [12] it was > 100 µM (inactive). The GI50 in assay [13] is 82.6 µM (inactive); in assay [14], > 100 µM (inactive); in [15], > 100 µM (inactive); in [16] it was > 100 µM (inactive); in [17], > 100 µM (inactive); in assay [18], > 100 µM (inactive). The GI50 in [19] was 92.7 µM (inactive); in assay [20] it was > 100 µM (inactive).

For the compound `O=C1C=C(Nc2ccccc2C(=O)CC(=O)C(=O)Nc2cccc(C(F)(F)F)c2)c2ccccc2C1=O`, the GI50 is 15.8 µM (inactive) in [1]; 7.5 µM (inactive) in assay [2]; 16.6 µM (inactive) in assay [3]; 16.8 µM (inactive) in assay [4]; 46.5 µM (inactive) in [5]; 57.4 µM (inactive) in [6]. For the same compound, the GI50 is 61.5 µM (inactive) in assay [7]; 4.94 µM (inactive) in assay [8]; > 100 µM (inactive) in assay [9]; 8.85 µM (inactive) in assay [10]; > 96.4 µM (inactive) in [11]; 24.1 µM (inactive) in [12]. Besides, the GI50 was 37.8 µM (inactive) in [13]; 31.2 µM (inactive) in assay [14]; 28.3 µM (inactive) in [15]; 21.3 µM (inactive) in assay [16]; 13.6 µM (inactive) in assay [17]; 17.9 µM (inactive) in assay [18]. Besides, the GI50 is 15.2 µM (inactive) in assay [19] and 20.8 µM (inactive) in [20].

`COC(=O)c1c(O)ccc2c1c1c(n2Cc2cc(OC)cc(OC)c2)C(=O)c2ccccc2C1=O`: the GI50 in assay [1] was 8.83 µM (inactive); in assay [2] it was 2.67 µM (inactive); in [3], 8.13 µM (inactive); in assay [4], 10.9 µM (inactive); in assay [5], 5.07 µM (inactive); in assay [6], 2.44 µM (inactive). Besides, the GI50 in assay [7] was 14.7 µM (inactive); in assay [8] it was 7.5 µM (inactive); in [9], 54.2 µM (inactive); in assay [10], 2.44 µM (inactive); in assay [11], 13 µM (inactive); in assay [12], 13.7 µM (inactive). For the same compound, the GI50 in assay [13] was 11.6 µM (inactive); in assay [14], 4.56 µM (inactive); in assay [15], 5.04 µM (inactive); in assay [16] it was 11.4 µM (inactive); in [17], 8.28 µM (inactive); in [18], 4.39 µM (inactive). Besides, the GI50 is 4.63 µM (inactive) in [19] and 8.32 µM (inactive) in [20].

Regarding `Cc1c(C)c2c(c(N)c1C#N)C(=O)N(Cc1ccc(S(N)(=O)=O)cc1)C2=O`, the GI50 in assay [1] was > 100 µM (inactive); in assay [2], > 100 µM (inactive); in assay [3] it was 25.9 µM (inactive); in assay [4], > 50.1 µM (inactive); in assay [5], > 58.6 µM (inactive); in assay [6], > 100 µM (inactive). Also, the GI50 in assay [7] was > 30.5 µM (inactive); in assay [8], > 100 µM (inactive); in [9] it was 27.9 µM (inactive); in assay [10], > 100 µM (inactive); in assay [11], 22.4 µM (inactive); in [12], > 100 µM (inactive). In addition, the GI50 in assay [13] is > 45 µM (inactive); in [14], 97.9 µM (inactive); in assay [15], > 42.6 µM (inactive); in [16], 21.5 µM (inactive); in assay [17] it was 18.9 µM (inactive); in [18] it was > 64 µM (inactive). The results for the GI50 in assay [19] and in assay [20] were > 75 µM (inactive) and 7.46 µM (inactive), respectively.

`CN(C)CC1(Cc2ccccc2)CCC(Cc2ccccc2)C1=O` (stereo not given): the GI50 in assay [1] is 13.7 µM (inactive); in assay [2] it was 10.2 µM (inactive); in [3], 10.1 µM (inactive); in [4], 12.2 µM (inactive); in [5] it was 17.3 µM (inactive); in [6], 13 µM (inactive). The GI50 in [7] was 20.1 µM (inactive); in assay [8] it was 3.29 µM (inactive); in assay [9], 15.5 µM (inactive); in assay [10], 4.47 µM (inactive); in assay [11], 13.4 µM (inactive); in assay [12], 12.3 µM (inactive). Further, the GI50 in assay [13] was 17.1 µM (inactive); in assay [14], 16.9 µM (inactive); in [15], 16.1 µM (inactive); in [16], 16.6 µM (inactive); in assay [17] it was 18.1 µM (inactive); in assay [18] it was 10.1 µM (inactive). Besides, the GI50 in assay [19] was 5.15 µM (inactive); in [20], 13.9 µM (inactive).

For the compound `COc1ccc(/C=N/Nc2nc3ccccc3c(=O)n2-c2ccccc2)cc1`, the GI50 in [1], in assay [2], in assay [3], in assay [4], in [5] and in assay [6] was > 100 µM (inactive) in each case. The GI50 in [7] was > 100 µM (inactive); in assay [8], > 100 µM (inactive); in assay [9], > 100 µM (inactive); in assay [10], 60.7 µM (inactive); in [11], > 100 µM (inactive); in [12], > 100 µM (inactive). Also, the GI50 is > 100 µM (inactive) in assay [13]; 2.28 µM (inactive) in assay [14]; > 100 µM (inactive) in assay [15]; > 100 µM (inactive) in assay [16]; 55.6 µM (inactive) in assay [17]; > 100 µM (inactive) in [18]. Besides, the GI50 in assay [19] was 3.61 µM (inactive); in [20] it was > 100 µM (inactive).

On to `CCOC(=O)/C=C\C(C#N)(C#N)/N=C/c1ccsc1`, for which the GI50 is 20 µM (inactive) in assay [1]; 2.39 µM (inactive) in assay [2]; 3.08 µM (inactive) in [3]; 17.7 µM (inactive) in [4]; 19.1 µM (inactive) in [5]; 11.1 µM (inactive) in assay [6]. For the same compound, the GI50 is 14.8 µM (inactive) in assay [7]; 2 µM (inactive) in [8]; 19 µM (inactive) in [9]; 1.04 µM (active) in assay [10]; 2.1 µM (inactive) in assay [11]; 2.38 µM (inactive) in assay [12]. The GI50 in assay [13] is 16.5 µM (inactive); in assay [14] it was 2.7 µM (inactive); in [15] it was 2.91 µM (inactive); in assay [16], 29.3 µM (inactive); in assay [17] it was 9.68 µM (inactive); in assay [18], 8.99 µM (inactive). Besides, the GI50 in assay [19] was 2.51 µM (inactive); in [20] it was 2.26 µM (inactive).
